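Test compounds were applied to cells in 96-well plates for 48 hours at 5 doses. GI50 is the concentration that inhibits growth by half.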 Calls of active or inactive are those of the source. Rule as the data show it: active = GI50 up to about 1.1 µM and inactive = higher.
Key:
Assay in all cases: inhibition of tumour cell growth, NCI panel, 48 h
DLD-1 = tested on: DLD-1
DMS-114 = tested on: DMS-114
HCT-15 = tested on: HCT-15
HL-60 = tested on: HL-60
KM-20L2 = tested on: KM-20L2
LOX IMVI = tested on: LOX IMVI
LXFL 529 = tested on: LXFL 529
M14 = tested on: M14
MOLT-4 = tested on: MOLT-4
NCI-H226 = tested on: NCI-H226
NCI-H522 = tested on: NCI-H522
OVCAR-4 = tested on: OVCAR-4
SF-295 = tested on: SF-295
SN12C = tested on: SN12C
SNB-19 = tested on: SNB-19
U-251 = tested on: U-251
UO-31 = tested on: UO-31
M19-MEL = tested on: M19-MEL

In the case of `Oc1nnc2c(-c3ccccc3)n[nH]c2n1`, the GI50 (DLD-1) is reported as > 100 µM (inactive), the GI50 (DMS-114) is reported as > 100 µM (inactive) and the GI50 (HCT-15) is reported as greater than 100 µM. The GI50 (HL-60) was > 100 µM (inactive), the GI50 (KM-20L2) was > 100 µM (inactive) and the GI50 (LOX IMVI) was > 100 µM (inactive). The GI50 (LXFL 529) was > 100 µM (inactive), the GI50 (M14) was > 100 µM (inactive) and the GI50 (MOLT-4) was > 100 µM (inactive). For the same compound, the GI50 (NCI-H226) was > 100 µM (inactive), the GI50 (NCI-H522) was > 100 µM (inactive) and the GI50 (OVCAR-4) was > 100 µM (inactive). For the same compound, the GI50 (SF-295) was > 100 µM (inactive), the GI50 (SN12C) was > 100 µM (inactive) and the GI50 (SNB-19) was > 100 µM (inactive). The GI50 (U-251) was > 100 µM (inactive) and the GI50 (UO-31) was > 100 µM (inactive).

In the case of `CC1=C(NC(=O)C(=O)NNC(=O)c2ccncc2)C(=O)c2ccccc2C1=O`, the GI50 (DLD-1) is reported as 13.8 µM (inactive), the GI50 (DMS-114) is reported as 4.76 µM (inactive) and the GI50 (HCT-15) is reported as 12.4 µM. The GI50 (HL-60) was 10.8 µM (inactive), the GI50 (KM-20L2) was 23.4 µM (inactive) and the GI50 (LOX IMVI) was 3.66 µM (inactive). For the same compound, the GI50 (LXFL 529) was 14.6 µM (inactive), the GI50 (M14) was 9.84 µM (inactive) and the GI50 (M19-MEL) was 1.64 µM (inactive). The GI50 (MOLT-4) was 20.8 µM (inactive), the GI50 (NCI-H226) was 14.2 µM (inactive) and the GI50 (NCI-H522) was 12.4 µM (inactive). For the same compound, the GI50 (OVCAR-4) was 13.8 µM (inactive), the GI50 (SF-295) was 10.8 µM (inactive) and the GI50 (SN12C) was 11.8 µM (inactive). For the same compound, the GI50 (SNB-19) was 17.5 µM (inactive), the GI50 (U-251) was 9.04 µM (inactive) and the GI50 (UO-31) was 18 µM (inactive).

`O=C1C=C(c2ccccc2)NC1(c1ccccc1)c1cc(-c2ccccc2)[nH]c1-c1ccccc1` (configuration not stated) was tested, and the GI50 (DLD-1) was > 100 µM (inactive), the GI50 (DMS-114) was > 100 µM (inactive) and the GI50 (HCT-15) was greater than 100 µM. For the same compound, the GI50 (HL-60) was > 100 µM (inactive), the GI50 (KM-20L2) was > 100 µM (inactive) and the GI50 (LXFL 529) was > 100 µM (inactive). For the same compound, the GI50 (M14) was > 100 µM (inactive), the GI50 (M19-MEL) was > 100 µM (inactive) and the GI50 (MOLT-4) was > 100 µM (inactive). For the same compound, the GI50 (OVCAR-4) was > 100 µM (inactive), the GI50 (SF-295) was > 100 µM (inactive) and the GI50 (SN12C) was > 100 µM (inactive). The GI50 (SNB-19) was > 100 µM (inactive), the GI50 (U-251) was > 100 µM (inactive) and the GI50 (UO-31) was > 100 µM (inactive).

For `CC(C)c1cccc(C(C)C)c1NC(=O)CCC(=O)NN`, the GI50 (DLD-1) was > 100 µM (inactive), the GI50 (DMS-114) was > 100 µM (inactive) and the GI50 (HCT-15) was 18 µM. For the same compound, the GI50 (HL-60) was > 100 µM (inactive), the GI50 (KM-20L2) was > 100 µM (inactive) and the GI50 (LXFL 529) was > 100 µM (inactive). The GI50 (M14) was > 100 µM (inactive), the GI50 (M19-MEL) was > 100 µM (inactive) and the GI50 (MOLT-4) was > 100 µM (inactive). For the same compound, the GI50 (NCI-H226) was > 100 µM (inactive), the GI50 (OVCAR-4) was > 100 µM (inactive) and the GI50 (SF-295) was > 100 µM (inactive). The GI50 (SN12C) was > 100 µM (inactive), the GI50 (SNB-19) was > 100 µM (inactive) and the GI50 (U-251) was > 100 µM (inactive). The GI50 (UO-31) was > 100 µM (inactive).

With `Oc1cccc(C2SCc3nc4ccccc4n32)c1` (configuration not stated) the GI50 (DLD-1) was 44.3 µM (inactive), the GI50 (DMS-114) was 31 µM (inactive) and the GI50 (HL-60) was 25.5 µM (inactive). For the same compound, the GI50 (LXFL 529) was 40.6 µM (inactive), the GI50 (MOLT-4) was 31.6 µM (inactive) and the GI50 (NCI-H226) was 21.2 µM (inactive). For the same compound, the GI50 (NCI-H522) was 38.3 µM (inactive), the GI50 (SF-295) was 39.1 µM (inactive) and the GI50 (SN12C) was 82.2 µM (inactive). The GI50 (SNB-19) was > 100 µM (inactive), the GI50 (U-251) was 84.5 µM (inactive) and the GI50 (UO-31) was 35.6 µM (inactive).

With `Cc1c(C(=O)/C=C/c2ccc3c(c2)OCO3)[n+]([O-])c2ccccc2[n+]1[O-]` the GI50 (DLD-1) was 38.6 µM (inactive), the GI50 (DMS-114) was 21.4 µM (inactive) and the GI50 (HL-60) was 30.8 µM (inactive). For the same compound, the GI50 (KM-20L2) was 22.3 µM (inactive), the GI50 (LOX IMVI) was 26.1 µM (inactive) and the GI50 (LXFL 529) was 22.2 µM (inactive). For the same compound, the GI50 (M14) was 28.1 µM (inactive), the GI50 (M19-MEL) was 35.2 µM (inactive) and the GI50 (MOLT-4) was 22.9 µM (inactive). For the same compound, the GI50 (NCI-H226) was 16 µM (inactive), the GI50 (NCI-H522) was 15.3 µM (inactive) and the GI50 (OVCAR-4) was 40.6 µM (inactive). For the same compound, the GI50 (SF-295) was 28.7 µM (inactive), the GI50 (SN12C) was 23 µM (inactive) and the GI50 (SNB-19) was 56 µM (inactive). The GI50 (U-251) was 30.3 µM (inactive) and the GI50 (UO-31) was 28 µM (inactive).

In the case of `OCC(O)C(OC1OC(CO)C(O)C(O)C1O)c1nn(-c2ccc(Cl)cc2)c2nc3cc(Cl)ccc3nc12` (configuration not stated), the GI50 (DLD-1) is reported as > 100 µM (inactive), the GI50 (DMS-114) is reported as > 100 µM (inactive) and the GI50 (HCT-15) is reported as greater than 100 µM. The GI50 (KM-20L2) was > 100 µM (inactive), the GI50 (LOX IMVI) was > 100 µM (inactive) and the GI50 (LXFL 529) was > 100 µM (inactive). The GI50 (M14) was > 100 µM (inactive), the GI50 (M19-MEL) was > 100 µM (inactive) and the GI50 (MOLT-4) was > 100 µM (inactive). For the same compound, the GI50 (NCI-H522) was > 100 µM (inactive), the GI50 (OVCAR-4) was > 100 µM (inactive) and the GI50 (SF-295) was > 100 µM (inactive). For the same compound, the GI50 (SN12C) was > 100 µM (inactive), the GI50 (SNB-19) was > 100 µM (inactive) and the GI50 (U-251) was > 100 µM (inactive). For the same compound, the GI50 (UO-31) was > 100 µM (inactive).

With `O=C(O)c1ccc(Nc2nc3nn(Cc4ccccc4)cc3c(=O)s2)cc1` the GI50 (DLD-1) was > 100 µM (inactive), the GI50 (DMS-114) was > 100 µM (inactive) and the GI50 (HCT-15) was greater than 100 µM. The GI50 (HL-60) was > 100 µM (inactive), the GI50 (KM-20L2) was > 100 µM (inactive) and the GI50 (LOX IMVI) was > 100 µM (inactive). The GI50 (LXFL 529) was > 100 µM (inactive), the GI50 (M14) was > 100 µM (inactive) and the GI50 (M19-MEL) was > 100 µM (inactive). For the same compound, the GI50 (MOLT-4) was > 100 µM (inactive), the GI50 (NCI-H522) was > 100 µM (inactive) and the GI50 (SF-295) was > 100 µM (inactive). For the same compound, the GI50 (SN12C) was > 100 µM (inactive), the GI50 (SNB-19) was > 100 µM (inactive) and the GI50 (U-251) was > 100 µM (inactive). For the same compound, the GI50 (UO-31) was > 100 µM (inactive).

With `CC(C)c1ccc(Cc2ccc(C(C)C)c(NC(=O)C(=O)Cc3cnc4ccccc4n3)c2C(C)C)c(C(C)C)c1NC(=O)C(=O)Cc1cnc2ccccc2n1` the GI50 (DLD-1) was > 100 µM (inactive), the GI50 (DMS-114) was > 100 µM (inactive) and the GI50 (HCT-15) was greater than 100 µM. For the same compound, the GI50 (HL-60) was > 100 µM (inactive), the GI50 (KM-20L2) was > 100 µM (inactive) and the GI50 (LOX IMVI) was > 100 µM (inactive). For the same compound, the GI50 (LXFL 529) was > 100 µM (inactive), the GI50 (M14) was > 100 µM (inactive) and the GI50 (M19-MEL) was > 100 µM (inactive). The GI50 (MOLT-4) was > 100 µM (inactive), the GI50 (OVCAR-4) was > 100 µM (inactive) and the GI50 (SF-295) was > 100 µM (inactive). The GI50 (SNB-19) was > 100 µM (inactive), the GI50 (U-251) was > 100 µM (inactive) and the GI50 (UO-31) was 53 µM (inactive).

Reference: ChEMBL document CHEMBL1201862, “PubChem BioAssay data set” (2004)
